Where two headings read alike, the source gives them in different places.
Columns and labels:
HCT-116 = assay: Cell growth IC50, screening of AOH1160 analogs; assay type: cell-based; details: Homo sapiens, HCT-116; read-out: IC50 values
Experimental: (§1) FIG. 29. IC50 data for select compounds. The indicated cell lines were seeded at 10^4 cells per well in a 96 well plate. After allowing to attach to the plate overnight, cells were treated with various concentrations of the indicated compounds in triplicates for 72 hrs. The cell growth was measured by an SRB assay. The cell abundances under each treatment condition relative to the baseline were averaged and graphed ±S.D. The baseline is defined as the median value of the cell abundances under the treatment by the two lowest compound concentrations. The IC50 was calculated by the Prism program.

OVCAR8 = assay: Cell growth IC50, screening of AOH1160 analogs; assay type: cell-based; details: Homo sapiens, OVCAR-8; OVCAR8; read-out: IC50 values
Experimental: as §1

RKO = assay: Cell growth IC50, screening of AOH1160 analogs; assay type: cell-based; details: Homo sapiens, read-out: IC50 values
Experimental: as §1

SK-N-AS = assay: Cell growth IC50, screening of AOH1160 analogs; assay type: cell-based; details: Homo sapiens
Experimental: as §1

SK-N-BE(2)c = assay: Cell growth IC50, screening of AOH1160 analogs; assay type: cell-based; details: Homo sapiens
Experimental: as §1

SK-N-DZ = assay: Cell growth IC50, screening of AOH1160 analogs; assay type: cell-based; details: Homo sapiens
Experimental: as §1

caPCNA = caPCNA (Homo sapiens, UniProt P12004); assay: Molecular probe binding in vitro
Chain of caPCNA (P12004 whole entry): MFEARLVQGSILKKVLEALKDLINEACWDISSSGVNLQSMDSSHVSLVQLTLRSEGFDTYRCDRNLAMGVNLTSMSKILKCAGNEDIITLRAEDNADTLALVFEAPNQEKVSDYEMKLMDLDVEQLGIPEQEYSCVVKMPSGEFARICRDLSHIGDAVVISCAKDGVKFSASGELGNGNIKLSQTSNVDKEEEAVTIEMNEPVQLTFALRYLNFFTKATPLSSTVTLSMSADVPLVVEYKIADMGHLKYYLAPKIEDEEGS

A549 = assay: Cell growth IC50, screening of AOH1160 analogs; assay type: cell-based; details: Homo sapiens
Experimental: as §1

A673 = assay: Cell growth IC50, screening of AOH1160 analogs; assay type: cell-based; details: Homo sapiens
Experimental: as §1

Hela = assay: Cell growth IC50, screening of AOH1160 analogs; assay type: cell-based; details: Homo sapiens
Experimental: as §1

H1753 = assay: Cell growth IC50, screening of AOH1160 analogs; assay type: cell-based
Experimental: as §1

H358 = assay: Cell growth IC50, screening of AOH1160 analogs; assay type: cell-based; details: Homo sapiens, NCI-H358
Experimental: as §1

MDA-MB-468 = assay: Cell growth IC50, screening of AOH1160 analogs; assay type: cell-based; details: Homo sapiens, MDA-MB-468; read-out: IC50 values
Experimental: as §1

[1] = system: SK-N-AS derived xenograft tumors; assay: Survival of mice bearing xenograft tumors, AOH1996 with CPT-11; assay type: in vivo, ES1^e/SCID mice; details: AOH1996 80 mg/kg oral 8 d; CPT-11 15 mg/kg i.p. 3 d; vs untreated
Experimental: FIGS. 4A-4H. Pharmacokinetics and anti-tumor growth activity of AOH1996 in vivo. FIG. 4A: After oral administration, the plasma concentrations of AOH1996 from three male and three female ES1^e/SCID mice at the indicated time points were averaged and graphed ±S.D. The inset contains PK parameters determined by a standard noncompartmental method. FIG. 4B: A similar PK study of AOH1996 was performed in dogs. FIGS. 4C-4E: Mice bearing the xenograft tumors of neuroblastoma (FIG. 4C: SK-N-BE(2)c), breast cancer (FIG. 4D: MDA-MB-468), and small-cell lung cancer (FIG. 4E: H82) were given vehicle only (black) or 40 mg/kg of AOH1996 (grey) twice daily immediately after the first measurement. Tumor sizes were measured by a dial caliper each week. Tumor volumes (0.4×L×W^2) were averaged and graphed ±S.E. (*, P<0.01). FIG. 4F: Animal body weight was monitored throughout the studies as an indicator of toxicity. […] FIG. 4G: The levels of phosphor-Chk1 (pChk1) and γH2A.X in SK-N-BE(2)c derived tumor samples were analyzed by IHC. […] The p values determined by the Log-rank (Mantel-Cox) test between combination treatment and each of the control groups are p=0.0003 (Combination vs. NoRx), p=0.005 (Combination vs. AOH1996 alone), and p=0.024 (Combination vs. CPT-11 alone). […]
In vivo tumor model. […] Tumor size and animal weight were measured weekly. […]

A375 = assay: Cell growth IC50, screening of AOH1160 analogs; assay type: cell-based; details: Homo sapiens, A-375
Experimental: as §1

Structure (SMILES): O=C(CNC(=O)c1cccc2ccccc12)Nc1ccccc1Sc1cccc(F)c1 [AOH1996S-3F, N-(2-((2-((3-fluorophenyl)thio)phenyl)amino)-2-oxoethyl)-1-naphthamide]
- IC50 (HCT-116): 2210 nM
- IC50 (OVCAR8): 1600 nM
- IC50 (RKO): 2320 nM

Structure (SMILES): O=C(CNC(=O)c1cccc2ccccc12)Nc1c(Cl)cccc1Oc1ccccc1 [AOH1160-2-C1]
- IC50 (SK-N-AS; read-out: IC50 values): > 10000 nM
- IC50 (SK-N-BE(2)c): > 10000 nM
- IC50 (SK-N-DZ): > 10000 nM

Structure (SMILES): N[C@@H](CCC(=O)O)C(=O)O [Glutamic acid]
- binding to caPCNA as molecular probe (caPCNA): bound caPCNA tightly

Structure (SMILES): COc1cccc(Oc2ccccc2NC(=O)CNC(=O)c2c(C)cc(C)cc2C)c1 [AOH1996TMB, N-(2-((2-(3-methoxyphenoxy)phenyl)amino)-2-oxoethyl)-2,4,6-trimethylbenzamide]
- IC50 (A549; FIG. 27, read-out: IC50): 4700 nM
- IC50 (A549; read-out: IC50 values): 4700 nM
- IC50 (A673; FIG. 27, read-out: IC50): 5500 nM
- IC50 (A673; read-out: IC50 values): 5500 nM
- IC50 (Hela; HeLa, read-out: IC50 values): 6500 nM
- IC50 (Hela; FIG. 27, Hela, read-out: IC50): 6500 nM

Structure (SMILES): NCCCC[C@H](N)C(=O)O [Lysine]
- binding to caPCNA as molecular probe (caPCNA): bound caPCNA tightly

Structure (SMILES): COc1cccc(Oc2ccccc2NC(=O)[C@H](C)NC(=O)c2cccc3ccccc23)c1 [AOH1996LA, (S)—N-(1-((2-(3-methoxyphenoxy)phenyl)amino)-1-oxopropan-2-yl)-1-naphthamide]
- IC50 (H1753; FIG. 26, H1752, read-out: IC50): 1600 nM
- IC50 (H1753; H1753, read-out: IC50 values): 1600 nM
- IC50 (H358; FIG. 26, H358, read-out: IC50): 1800 nM
- IC50 (H358; read-out: IC50 values): 1800 nM
- IC50 (MDA-MB-468): 2300 nM
- IC50 (SK-N-AS; FIG. 26, AK-N-AS, read-out: IC50): 1500 nM
- IC50 (SK-N-AS; read-out: IC50 values): 1500 nM

Structure (SMILES): CCc1c2c(nc3ccc(OC(=O)N4CCC(N5CCCCC5)CC4)cc13)-c1cc3c(c(=O)n1C2)COC(=O)[C@]3(O)CC [CPT-11, reference compound]
- increase of median survival [1]: 34.6%

Structure (SMILES): O=C(CNC(=O)c1cccc2ccccc12)Nc1ccccc1Sc1ccc(F)cc1 [AOH1996S-4F, N-(2-((2-((4-fluorophenyl)thio)phenyl)amino)-2-oxoethyl)-1-naphthamide]
- IC50 (A375): 350 nM
- IC50 (SK-N-AS; read-out: IC50 values): 370 nM

Structure (SMILES): COc1cccc(Sc2ccccc2NC(=O)CNC(=O)c2cccc3ccccc23)c1 [AOH1996S, N-(2-((2-((3-methoxyphenyl)thio)phenyl)amino)-2-oxoethyl)-1-naphthamide]
- IC50 (A375): 170 nM
- IC50 (Hela; HeLa, read-out: IC50 values): 370 nM
